From PMC9046208, “Foldamers reveal and validate therapeutic targets associated with toxic α-synuclein self-assembly” (Nature Communications, 2022)

Experiments:
[1] = Parallel artificial membrane permeability assay (PAMPA); format: in vitro ADME; conditions: 4% lecithin in dodecane; for permeability Pe: 1x PBS, 500 μM donor, RT, 18 h, UV absorbance
Procedure: A parallel artificial membrane permeability assay (PAMPA) Kit (BioAssay Systems, Hayward, CA) was used to measure the membrane permeability of SK-129 according to the manufacturer’s protocol. Briefly, a 4% lecithin solution (LS) was prepared in dodecane and solubilized with constant sonication for 20 min. Then, 5 µL of LS was placed on the donor plate membranes. A 300 μL 1x PBS buffer was applied to the acceptor plate. The solutions of SK-129 and various permeability controls (Highly soluble, medium soluble and low soluble) molecules were added to donor plates (200 μL and 500 μM). The donor plate was placed in the acceptor plate and incubated at RT for 18 h. Then the solutions were removed from the acceptor plate and placed in a clear-bottom 96-well plate (Corning Inc., Corning, NY) and absorbance was recorded at 360 nm for SK-129 and 275 nm for standards. The permeability was calculated using Eq. 2:2 Pe=C×−ln1−ODA/ODEcm/s Where the permeability rate C is 7.72 × 10^−6, ODA is the absorbance of acceptor solution and ODE is absorbance of equilibrium standard.

[2] = system: NL5901; experiment: αS-YFP inclusion count in C elegans NL5901; format: in vivo; conditions: NL5901, 15 μM SK-129, day 8 of adulthood; untreated ~33
Procedure: The assay was carried out based on a previous protocol[57] with slight modifications. On day one, N2 and NL5901 strains were synchronized through the bleaching process involving egglay and the incubation of the eggs at an ambient temperature (~23 °C) on a solution of 3 mL NGM media in 60 mm culture plates (CytoOne, USA Scientific, Ocala, FL). The plates were seeded with 300 µL OP50 at an O.D. of 0.5 for 30 h. Simultaneously, a solution of 15 µM SK-129 (Stock solution concentration = 10 mM in DMSO) was made in M9 buffer and added to two sterilized 35 mm NGM solid media plates (Fisher Scientific, Pittsburgh, PA). The plates were already containing 2 mL of NGM solid media and 75 µM Fluorodeoxyuridine (FUDR) to prevent offspring in the worms. […] On day five, motility assay was conducted for worms under different conditions in duplicate using a WMicroTracker Arena plate reader (Phylumtech, Argentina) at ~23 °C for 1 h per day over a period of 12 days. […]
The worms from the NL5901 strain were treated in the absence and presence of SK-129 (15 µM SK-129, stock solution concentration = 10 mM in DMSO) as described in the paralysis experiment. […] For each experiment, at least 15 worms were used, and the inclusions were counted manually, and each condition consisted of at least four independent experiments.

[3] = system: HEK cells expressing αS-A53T-YFP; experiment: Intracellular seed catalyzed aggregation in HEK cells, MTT viability; format: cell-based; conditions: 10 µM SK-129 added 8 h after PD seeds, up to four days
Procedure: The HEK cells (200,000 cells/mL) were plated in an µ-slide eight-well plate (300 µL/well) and incubated at 37 °C and 5% CO2 (g), and allowed to adhere to the plate for 24 h in media (DMEM, 10% FBS, 1% pen/strep). […] The HEK cells were incubated with αS fibrils for 8 h followed by the addition of 10 µM SK-129 for 300 µL media in each well (0.3 µL of 10 mM stock solution in DMSO, total DMSO = 0.1% v,v). The eight-well plate was incubated for a total of 24 h. The eight-well plate after 24 h was used for both confocal imaging and for the cytotoxicity measurements using MTT assay (2 wells/condition, 300 µL/well). In each experiment, 2 wells were used for each condition, including control (only media and DMSO), fibrils, and fibrils+SK-129.
The HEK cells in the eight-well plate were treated with 30 µL of 1x PBS buffer containing MTT dye (5 mg/mL in 1x PBS buffer) to each well. The plates were wrapped in aluminum foil and incubated for 3 h. After 3 h, all liquid was aspirated carefully without disturbing the formazan crystals. To each well, 300 µL of DMSO was added to dissolve the crystals. Once dissolved, the DMSO solution was transferred to a clear 96-well plate (100 µL/well). The absorbance was read on a 96-well plate reader at 570 nm. The cytotoxicity assay was conducted up to four days from when the protein conditions were added to the cells. […]

membrane permeation [1]: efficiently permeate cell membranes
permeability Pe ([1]; trial 1): 4.75 ×10⁻⁶ cm/s
permeability Pe ([1]; trial 2): 4.45 ×10⁻⁶ cm/s
permeability Pe ([1]; trial 3): 4.64 ×10⁻⁶ cm/s
permeability Pe ([1]; trial 4): 4.65 ×10⁻⁶ cm/s
permeability Pe ([1]; trial 5): 4.64 ×10⁻⁶ cm/s
permeability Pe ([1]; trial 6): 4.36 ×10⁻⁶ cm/s
permeability Pe ([1]; trial 7): 4.67 ×10⁻⁶ cm/s
permeability Pe ([1]; trial 8): 4.79 ×10⁻⁶ cm/s
Compound: COC(=O)c1cc(OCC(=O)O)c2cccc(NC(=O)c3cc(OC(C)C)c4cccc(NC(=O)c5cc(OCC(=O)O)c6cccc(NC(=O)c7cc(OC(C)C)c8cccc([N+](=O)[O-])c8n7)c6n5)c4n3)c2n1 [SK-129]
number of αS-YFP inclusions [2]: 8–9 inclusions/C elegans
cell viability of HEK cells [3]: significantly higher upto four days
